Broadly, the viability, T/C is the result in the treated group divided by that in the control group, in per cent. Broadly, the IC50 is the concentration that gives 50% inhibition.

Consider four molecules from PubChem BioAssay AID1963844 (Molecular Pharmacology Branch, DTP, NCI, 2024).

Structures are written as SMILES. Values joined by “and” are separate entries in the source; they are usually repeats but may differ in a detail not shown here. Equal values may be shown once.

The test system of this assay is 422866-222-R5-J1-PDC complex spheroid viability. The assay is described as follows: Anticancer human tumor 422866-222-R5-J1-PDC patient-derived pancreatic adenocarcinoma cell line growth inhibition [POLQ]. The settings on record: for viability, T/C: stronger effect = lower value. The method, then: Multicellular complex tumor spheroid response to Polymerase (POL) inhibitors (novobiocin, ART-558, RP6685) in combination with a variety of drugs and investigational agents in selected tumor cell lines
The POL inhibitors (novobiocin, ART-558, and RP6685) were evaluated both individually and in combination with standard of care and investigational anticancer small molecules within a complex spheroid model of solid tumors. . Complex spheroids include a stromal component modeled by human endothelial cells (HUVEC) and fibroblasts modeled by human mesenchymal stem cells (MSCs). The concentration ranges selected for each drug and investigational agent were based upon clinically achievable concentrations if the clinical Cmax of the agent was known.
Compounds. The drugs and investigational agents: novobiocin (NSC847541), ART-558 (NSC835418), RP-6685 (NSC848927), peposertib (NSC802822), ceralasertib (NSC780249), elimusertib (NSC800525), camonsertib (NSC841442), AZD-1390 (NSC803789), olaparib (NSC753686), talazoparib (NSC767125), rucaparib (NSC756644), sotorasib (NSC818433), MRTX-1133 (NSC836407), SN-38 (NSC673596), topotecan (NSC609699), epotoside (NSC141540), doxorubicin (NSC123127), gemcitabine (NSC613327), 5-fluorouracil (NSC19893), paclitaxel (NSC125973), vemurafenib (NSC761431), MSA-2 (NSC828583), SN-011 (NSC837082), adavosertib (NSC754352), prexasertib (NSC758257), carboplatin (NSC241240) and oxaliplatin (NSC266046), were obtained from the National Cancer Institute (NCI) Developmental Therapeutics Program Chemical Repository (21). The FDA-approved anticancer drug set is available from the Developmental Therapeutics Program at https://dtp.cancer.gov/organization/dscb/obtaining/. […] The stock solutions were prepared in dimethyl sulfoxide (DMSO, Sigma-Aldrich, St. Louis, MO, cat. D2650), except for the platinum compounds which were prepared in saline (Quality Biological, Gaithersburg, MD, cat. 114-055-101), at 800-fold the tested concentration and stored at -70 degrees C prior to their use. All drugs and investigational agents were tested over a range starting from a high concentration at or near the clinical Cmax and decreasing in half-log increments. If the clinical Cmax for an agent had not been determined, the highest concentration tested was 10 microM, except for SN-38, which was tested at a high concentration of 1 microM.
Cell Culture. All cells were maintained in an incubator at 37 degrees C and 5% CO2 with 95% humidity. The PDC lines were cultured according to standard operating procedures established by the NCI PDMR (https://pdmr.cancer.gov). Table 3 of the manuscript, lists the cell lines along with the number of the three cell types plated to form the mct-spheroids and media for tumor cell growth. After thawing, all PDC lines, except 997537-175-T-J1-PDC and 415267-285-R-J2-PDC, were cultured in Matrigel-coated flasks prepared with a working solution of 1X Ham's F-12 nutrient mix, without supplementation (Thermo Fisher Scientific, cat. 11765054), 100 U/mL penicillin-streptomycin (Thermo Fisher Scientific, cat. 15140122), and 2.5% Matrigel (Corning Inc., Corning, NY, cat. 354248) for the first three passages. The two PDC lines 997537-175-T-J1-PDC and 415267-285-R-J2-PDC were cultured on uncoated flasks. The 857933-349-R-J2-PDC line was cultured in 6C/Colon 1B media containing advanced DMEM/F-12 (Thermo Fisher Scientific, cat. 12634028), 10 mM HEPES (Thermo Fisher Scientific, cat. 15630080), 1X GlutaMAX supplement (Thermo Fisher Scientific, cat. 35050061), 0.1 mg/mL primocin (InvivoGen, San Diego, CA, cat. ant-pm-2), 10% defined fetal bovine serum, heat inactivated (HyClone Laboratories Inc., Logan, UT, cat. SH30070.03HI), 50% L-WRN conditioned media (ATCC, cat. CRL-3276), 1.25 mM N-Acetyl-L-cysteine (Sigma-Aldrich, cat. A9165), 10 mM nicotinamide (Sigma-Aldrich, cat. N0636), 1X B-27 supplement (Thermo Fisher Scientific, cat. 17504044), 1X N-2 supplement (Thermo Fisher Scientific, cat. […]
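Further: spheroids exposed to compounds for one week before readout.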
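Wherever viability, T/C is given: percent of DMSO vehicle wells luminescence so 100% = untreated viability.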

Consider `Cn1ncnc1[C@H]1c2n[nH]c(=O)c3cc(F)cc(c23)N[C@@H]1c1ccc(F)cc1`, for which the viability, T/C (compound 0.000316 µM) is 105% and 98.6% and 90.6%; the viability, T/C (compound 0.001 µM) was 94.4% and 84.4% and 82.5%; the viability, T/C (compound 0.00316 µM) is 95.8% and 100% and 84.7%; the viability, T/C (compound 0.01 µM) was 102% and 89.2% and 106%; the viability, T/C (compound 0.0316 µM) is 96.2% and 89.7% and 91.1%; the viability, T/C (compound 0.1 µM) was 82.2% and 98.5% and 82.5%. The IC50 (curve of compound) was greater than 0.1 µM.
For `C=CCn1c(=O)c2cnc(Nc3ccc(N4CCN(C)CC4)cc3)nc2n1-c1cccc(C(C)(C)O)n1`, the viability, T/C is, setting by setting: (compound 0.00316 µM) 86.1% and 96.9% and 101%; (compound 0.01 µM) 105% and 93% and 107%; (compound 0.0316 µM) 105% and 93.5% and 83.3%; (compound 0.1 µM) 85.7% and 91% and 78.1%; (compound 0.316 µM) 56% and 43.9% and 56.5%; (compound 1 µM) 36% and 31% and 34.6%. For the same molecule, the IC50 (curve of compound) was 0.434 µM and 0.272 µM and 0.446 µM.
As for `COc1cc2cc(C(=O)CCC(=O)O)sc2cc1OC`, the viability, T/C is 106% and 85.3% and 94.7% (compound 0.0316 µM); 99.5% and 89.1% and 83% (compound 0.1 µM); 107% and 91% and 88% (compound 0.316 µM); 98.6% and 97.3% and 98% (compound 3.16 µM). For the same molecule, the IC50 (curve of compound) is greater than 10 µM.
For the molecule `COc1cc2cc(C(=O)CCC(=O)O)sc2cc1OC` + COC1C(OC(N)=O)C(O)C(Oc2ccc3c(O)c(NC(=O)c4ccc(O)c(CC=C(C)C)c4)c(=O)oc3c2C)OC1(C)C, the 50% inhibitory concentration (IC50) is, setting by setting: (curve of first compound, second compound 0.0316 µM) greater than 10 µM; (curve of first compound, second compound 0.1 µM) greater than 10 µM; (curve of first compound, second compound 0.316 µM) greater than 10 µM; (curve of first compound, second compound 1 µM) greater than 10 µM; (curve of first compound, second compound 3.16 µM) greater than 10 µM; (curve of first compound, second compound 10 µM) greater than 10 µM. Moreover, the viability, T/C (second compound 0.0316 µM, first compound 0.0316 µM) came out at 102%; the viability, T/C (second compound 0.0316 µM, first compound 0.1 µM) was 104%; the viability, T/C (second compound 0.0316 µM, first compound 0.316 µM) was 87.3%; the viability, T/C (second compound 0.0316 µM, first compound 1 µM) came out at 114%; the viability, T/C (second compound 0.0316 µM, first compound 3.16 µM) amounted to 94.2%; the viability, T/C (second compound 0.0316 µM, first compound 10 µM) is 106%. Also, the viability, T/C came out at 114% (second compound 0.1 µM, first compound 0.0316 µM); 95.8% (second compound 0.1 µM, first compound 0.1 µM); 93.8% (second compound 0.1 µM, first compound 0.316 µM); 105% (second compound 0.1 µM, first compound 1 µM); 88.1% (second compound 0.1 µM, first compound 3.16 µM); 102% (second compound 0.1 µM, first compound 10 µM). Moreover, the viability, T/C reads like this: (second compound 0.316 µM, first compound 0.0316 µM) 98.8%; (second compound 0.316 µM, first compound 0.1 µM) 95%; (second compound 0.316 µM, first compound 0.316 µM) 110%; (second compound 0.316 µM, first compound 1 µM) 93.4%; (second compound 0.316 µM, first compound 3.16 µM) 93.8%; (second compound 0.316 µM, first compound 10 µM) 106%. For the same molecule, the viability, T/C runs as follows: (second compound 1 µM, first compound 0.0316 µM) 104%; (second compound 1 µM, first compound 0.1 µM) 96.8%; (second compound 1 µM, first compound 0.316 µM) 94.4%; (second compound 1 µM, first compound 1 µM) 102%; (second compound 1 µM, first compound 3.16 µM) 92.7%; (second compound 1 µM, first compound 10 µM) 115%. The viability, T/C came out at 99.1% (second compound 3.16 µM, first compound 0.0316 µM); 102% (second compound 3.16 µM, first compound 0.1 µM); 107% (second compound 3.16 µM, first compound 0.316 µM); 103% (second compound 3.16 µM, first compound 1 µM); 92.5% (second compound 3.16 µM, first compound 3.16 µM); 134% (second compound 3.16 µM, first compound 10 µM). The viability, T/C was determined as 97.2% (second compound 10 µM, first compound 0.0316 µM); 104% (second compound 10 µM, first compound 0.1 µM); 105% (second compound 10 µM, first compound 0.316 µM); 99% (second compound 10 µM, first compound 1 µM); 94.8% (second compound 10 µM, first compound 3.16 µM); 122% (second compound 10 µM, first compound 10 µM).
